“And” between values parts separate entries of the source, which are not always exact repeats. Equal values may be shown once.
How the values were obtained:
LDL-C [1] = experiment: PROSPER study: lipid (LDL-C, HDL-C, triglyceride) response to Pravastatin 40 mg/day, overall and by SLCO1B1/LXRA genotype; assay type: in vivo, human; conditions: for Adjusted mean percent LDL-cholesterol reduction: mean ± S.D.
Protocol: The effect of SNPs at nucleotide positions 388 (e.g. A>G) and 625 (e.g. T>C) of the SLCO1B1 gene and also at nucleotide position −115 (e.g. G>A) of the LXRA gene on responsiveness to Pravastatin in subjects of various genotypes was assessed by analyzing the correlation of different SNP genotypes with the 6 month and 12 month changes in TC and LDL-C levels in treated subjects, as shown below in Table 5. Neither the presence of the LXRA SNP at nucleotide position −115 nor the SLCO1B1 SNP at nucleotide position 388 were associated with lipid lowering. […] The percentage reductions in LDL-C given are for the 6 month time point (Table 5).
Biochemical and DNA analysis: Total cholesterol (TC), HDL-C, and triglycerides were assessed in subjects after an overnight fast at 6 months, and at 12 months, and LDL-C was calculated by the Friedewald formula, as previously described (Shepherd J et al. (2002) Lancet 360:1623-30). Apolipoprotein B (apoB) was measured only at baseline as described. DNA was isolated from cells from this cohort, and DNA from 5,783 subjects participating in this study was also available. ApoE phenotype was determined on plasma samples by Western blotting, using the method of Havekes et al. in the central laboratory of the Royal Infirmary in Glasgow, Scotland (Havekes L M et al. A rapid micro method for apolipoprotein E phenotyping directly in serum. J Lipid Res (1987) 28:455-63). Subjects were classified according to the presence of apoE2, apoE3, or apoE4 bands on gel blotting (Havekes L M et al. (1987) J Lipid Res 28:455-63).
DNA analysis was conducted by genotyping two single nucleotide polymorphisms (SNPs) of the SLCO1B1 gene—388A>G (rs2306283) and 511T>C (rs4149056)—using standard methods (e.g. Taq Man® SNPs genotyping assays by Applied Biosystems, Foster City, Calif.). The custom assay identification numbers for these analyses were C—1901697—20 and C—30633906—10, respectively. Additionally, DNA analysis was also conducted by genotyping one SNP of the LXRA gene, rs12221497, and the custom assay identification number for this analysis was C—30887860—10. The end points were ascertained after PCR amplification was performed using standard methods (e.g. an Applied Biosystems 7900 HT Sequence Detection System). Genotypes with quality scores below the 95% threshold were repeated and 5% blinded replicates for genotype determinations were performed. In addition, a total of 119 subjects (˜2.2% of the sample size) who had the apoE4/2 phenotype were excluded from these analyses, as well as 246 subjects who had missing apoE phenotype. These subjects were excluded because apoE phenotype or genotype can affect statin-induced LDL-C lowering response, as well as CHD risk, in an allele dependent manner. For example, subjects carrying the apoE4 allele having the greatest response in terms of LDL-C lowering and the highest CHD risk, however, apoE2 and apoE4 phenotype have opposite effects in this regard.
Statistical analysis: Observed genotype frequencies were compared with those expected under Hardy-Weinberg equilibrium using a χ2 test. For data analysis, multivariable analysis of covariance (ANCOVA) was performed to detect associations between the lipoprotein levels at baseline as well as changes in response to the treatment with Pravastatin at 6 months and with SLCO1B1 genotypes adjusted for gender, body mass index, age, alcohol, smoking, diabetes, apoE phenotype, and country of origin, since subjects participating in PROSPER were either from Scotland, Ireland, or the Netherlands. […]

[2] = system: elderly individuals at risk of vascular disease; experiment: PROSPER study: incidence of CHD death or nonfatal MI on trial; assay type: in vivo, human; conditions: for Pravastatin HR, hazards ratio (95% confidence intervals), CHD death or nonfatal MI: Pravastatin group
Protocol: Statistical analysis: Observed genotype frequencies were compared with those expected under Hardy-Weinberg equilibrium using a χ2 test. For data analysis, multivariable analysis of covariance (ANCOVA) was performed to detect associations between the lipoprotein levels at baseline as well as changes in response to the treatment with Pravastatin at 6 months and with SLCO1B1 genotypes adjusted for gender, body mass index, age, alcohol, smoking, diabetes, apoE phenotype, and country of origin, since subjects participating in PROSPER were either from Scotland, Ireland, or the Netherlands. Prevalence at baseline of myocardial infarction (MI) and all types of vascular disease (history of angina, claudication, MI, stroke, transient ischemic attack, peripheral arterial disease surgery, or amputation for vascular disease more than 6 months before study entry) at baseline, as well as incidence of primary endpoints (CHD death or nonfatal MI or fatal non-fatal stroke), and all cardiovascular events (primary endpoints and coronary artery bypass grafting, coronary angioplasty, and peripheral artery surgery or angioplasty), were compared between carriers of different SLCO1B1 SNP genotypes using multivariable logistic regression analysis in all subjects and stratified by gender and treatment. All analyses were fully adjusted for age, gender, country, history of vascular disease, body mass index, history of diabetes, as well as history of hypertension, alcohol use, current smoking, and apoE phenotype. To evaluate the modifying effects of genotypes and gender on the response to treatment, gene-treatment and gene-gender interaction terms were added to the regression models. Lewontin's D value was calculated to assess the linkage disequilibrium (LD) between the two SNPs of interest (Lewontin R C. The interaction of selection and linkage. II. Optimum models. Genetics 1964; 50:757-82). There was no interaction between these SNPs and also no interaction between these SNPs and apoE genotype. All analyses were performed using SAS/STAT and SAS/Genetics [including proc haplotype procedure] (SAS Version 9.1, SAS Institute Inc., Cary, N.C.). A two-sided p<0.05 was considered statistically significant.

[3] = system: elderly individuals at risk of vascular disease; experiment: PROSPER study: adverse events (myalgia, rhabdomyolysis, creatine kinase)
Source text: In this randomized study with 5,804 subjects, 2,913 subjects received placebo and 2,891 received Pravastatin (three of whom refused medication). […] This adverse event rate was very similar to the placebo group where 116 subjects discontinued medication because of non-fatal adverse events. […] At the 3 month visit there no subjects that had creatine kinase levels >10 the upper limits of normal.
Study Subjects: The results and the methodology used in the PROspective Study of Pravastatin in the Elderly at Risk (PROSPER) study have been previously described (see e.g., Shepherd J et al. PROspective Study of Pravastatin in the Elderly at Risk. Pravastatin in elderly individuals at risk of vascular disease (PROSPER): a randomized controlled trial. Lancet (2002) 360:1623-30 and Shepherd J et al. The design of a prospective study of Pravastatin in the Elderly at Risk (PROSPER). PROSPER Study Group. PROspective Study of Pravastatin in the Elderly at Risk. Am J Cardiol (1999) 84:1192-97).
In the present study 2,804 men and 3,000 women between the ages of 70 and 82 with pre-existing vascular disease (n=2,404) or at least one of three major vascular risk factors (diabetes n=575, smoking n=1,433, or hypertension n=3,360) were randomized to Pravastatin 40 mg/day (n=2,891) or placebo (n=2,913) and followed up on for 3.2 years, on average. […] This effect translates into an estimated 30% risk reduction in CHD events over 5 years, which is consistent with other statin trials. […] For subjects that were judged to have good compliance (i.e. taking medication more than 75% of the time), these alterations on the lipid levels were even greater: −34% […], +5% (increased HDL-C), and −13% (decreased triglycerides), respectively. […] Lipid levels were similar at onset of the study in subjects randomized to Pravastatin or placebo.

LDL-C [4] = experiment: PROSPER study: lipid (LDL-C, HDL-C, triglyceride) response to Pravastatin 40 mg/day, overall and by SLCO1B1/LXRA genotype; assay type: in vivo, human; conditions: mean ± S.D.
[5] = single oral dose of 40 mg, 32 subjects; cited from earlier work
[6] = 16 healthy volunteers, multiple-dose; cited from earlier work
[7] = subjects with good compliance (medication more than 75% of the time)

CC[C@H](C)C(=O)O[C@H]1C[C@H](O)C=C2C=C[C@H](C)[C@H](CC[C@@H](O)C[C@@H](O)CC(=O)O)[C@H]21 [Pravastatin, pravastatin]
Adjusted mean percent LDL-cholesterol reduction (LDL-C [1]; 6 months, LXRA 115 G > A genotype AA): −37.4 ± 10.9%
Adjusted mean percent LDL-cholesterol reduction (LDL-C [1]; 6 months, LXRA 115 G > A genotype GA): −36.4 ± 10.7%
Adjusted mean percent LDL-cholesterol reduction (LDL-C [1]; 6 months, LXRA 115 G > A genotype GG): −36.6 ± 10.7%
Adjusted mean percent LDL-cholesterol reduction (LDL-C [1]; 6 months, SLCO1B1 388 A > G genotype AA): −36.7 ± 10.5%
Adjusted mean percent LDL-cholesterol reduction (LDL-C [1]; 6 months, SLCO1B1 388 A > G genotype AG): −36.6 ± 10.7%
Adjusted mean percent LDL-cholesterol reduction (LDL-C [1]; 6 months, SLCO1B1 388 A > G genotype GG): −36.2 ± 11.6%
Adjusted mean percent LDL-cholesterol reduction (LDL-C [1]; 12 months, LXRA 115 G > A genotype AA): −35.3 ± 11.2%
Adjusted mean percent LDL-cholesterol reduction (LDL-C [1]; 12 months, LXRA 115 G > A genotype GA): −35.1 ± 11.6%
Adjusted mean percent LDL-cholesterol reduction (LDL-C [1]; 12 months, LXRA 115 G > A genotype GG): −35.5 ± 12.1%
Adjusted mean percent LDL-cholesterol reduction (LDL-C [1]; 12 months, SLCO1B1 388 A > G genotype AA): −35.9 ± 11.2%
Adjusted mean percent LDL-cholesterol reduction (LDL-C [1]; 12 months, SLCO1B1 388 A > G genotype AG): −35.3 ± 12.3%
Adjusted mean percent LDL-cholesterol reduction (LDL-C [1]; 12 months, SLCO1B1 388 A > G genotype GG): −34.3 ± 12.8%
Adjusted mean percent LDL-cholesterol reduction (LDL-C [1]; 12 months, SLCO1B1 625 T > C genotype CC): −31.8 ± 11.7%
Adjusted mean percent LDL-cholesterol reduction (LDL-C [1]; 12 months, SLCO1B1 625 T > C genotype TC): −34.6 ± 12.5%
HDL-C increase versus baseline (LDL-C [1]; subjects placed on Pravastatin): 5%
triglycerides decrease versus baseline (LDL-C [1]; subjects placed on Pravastatin): 12%
alteration printed as risk reduction for CHD (LDL-C [1]; [7]): −34%
decreased triglycerides (LDL-C [1]; [7]): −13%
increased HDL-C (LDL-C [1]; [7]): +5%
Pravastatin HR, hazards ratio (95% confidence intervals), CHD death or nonfatal MI ([2]; 388 A > G genotype AA (reference genotype)): 1
Pravastatin HR, hazards ratio (95% confidence intervals), CHD death or nonfatal MI ([2]; 388 A > G genotype AG versus AA): 1.13
Pravastatin HR, hazards ratio (95% confidence intervals), CHD death or nonfatal MI ([2]; 388 A > G genotype GG versus AA): 1.12
Pravastatin HR, hazards ratio (95% confidence intervals), CHD death or nonfatal MI ([2]; 625 T > C genotype CC versus TT): 0.64
Pravastatin HR, hazards ratio (95% confidence intervals), CHD death or nonfatal MI ([2]; 625 T > C genotype TC versus TT): 0.99
Pravastatin HR, hazards ratio (95% confidence intervals), CHD death or nonfatal MI ([2]; 625 T > C genotype TT (reference genotype)): 1
estimated risk reduction in CHD events ([2]; over 5 years, translated from the 3.2 year effect): 30%
reported cases of myalgia ([3]; both, human, in vivo, 3.2 years): 36 cases
association of the SLCO1B1 rs4149056 SNP with myalgia ([3]; in vivo): no association
reported cases of rhabdomyolysis ([3]; in vivo): no reported cases
subjects who discontinued medication because of non-fatal adverse events ([3]; of 2,888 subjects started on Pravastatin, 116 in placebo group): 107 subjects
Adjusted mean percent LDL-cholesterol reduction (LDL-C [4]; 6 months, SLCO1B1 625 T > C genotype CC, Pravastatin 40 mg/day): −31.8% and −31.8 ± 12.8%
Adjusted mean percent LDL-cholesterol reduction (LDL-C [4]; 6 months, SLCO1B1 625 T > C genotype TC, Pravastatin 40 mg/day): −36.0% and −36.0 ± 10.4%
Adjusted mean percent LDL-cholesterol reduction (LDL-C [4]; 6 months, SLCO1B1 625 T > C genotype TT, Pravastatin 40 mg/day): −37.0% and −37.0 ± 10.8%
Adjusted mean percent LDL-cholesterol reduction (LDL-C [4]; 12 months, SLCO1B1 625 T > C genotype TT): −35.9 ± 11.8%
areas under the curve of pravastatin blood levels, CC versus wildtype TT SLCO1B1 genotype [5]: significantly greater
plasma pravastatin levels with SLCO1B1 haplotype as compared to other haplotypes [6]: doubling
